Earlier results as cited in US9738932B2, “Biomarkers for cardiovascular side-effects induced by cox-2 inhibitory compounds” (FIRALIS SAS, priority 2005, dated 2017).

Test system: CXCL10 synthesis
Settings: by preventing PGE2 production and PKA activation; cited from earlier work

Q: With `CS(=O)(=O)Nc1ccc([N+](=O)[O-])cc1OC1CCCCC1` [NS398] as the molecule, how does the “effect on CXCL10 synthesis upon INFγ stimulation” value read?
A: The value was “potentiates”.
